Experimental findings from patent US5597801A, “Biocidal proteins” (priority 1991, dated 1997) are described below.

For one series, the system named is Phytophthora infestans. The class given is cell-based.
Series [1] concerns Bacillus megaterium ATCC 13632. The series is described as follows: Antibacterial activity assay (microspectrophotometry). The class given is cell-based. The note with it: B megaterium; 24 hours of incubation at 28° C.
Another series has as its system Sarcina lutea ATCC 9342. Described as above. It counts as cell-based. The note with it: S lutea; 24 hours of incubation at 28° C.
Series [2] concerns Erwinia carotovora strain 3912. Described as above. The class given is cell-based. Particulars: E carotovora; highest test concentration 500 μg/ml.
Series [3] has as its system Escherichia coli strain HB101. Described as above. It counts as cell-based. The note with it: E coli; for IC50 (antibacterial activity): Table 4, highest test concentration 500 μg/ml; for IC50 (activity on bacteria): Table 5.
Series [4] in a line: Chitin-binding activity (chitin micro-column, SDS-PAGE of fractions). Particulars: 50 μg on chitin micro-column; washed at pH 7, desorbed with 100 mM acetic acid (pH 2.8).
A further series concerns B cinerea. The series is described as follows: Effect of ions on antifungal activity (synthetic growth medium). The class given is cell-based, Botrytis cinerea. The note with it: for increase of IC50 values by CaCl2 at 1 mM: reference medium + 1 mM CaCl2; for drop in specific activity at 5 mM CaCl2: reference medium + 5 mM CaCl2; for effect of KCl at 10 mM on the dose-response curves: reference medium + 10 mM KCl; for increase of IC50 values by KCl at 50 mM: reference medium + 50 mM KCl; for IC50 in reference medium: synthetic growth medium, 2.5 mM monovalent and 0.1 mM divalent cations.

Series [5] relates to Fusarium culmorum spores. The class given is cell-based. The note with it: F culmorum spores; protein 2-4 fold below the IC50 value; light microscope. An excerpt:
During the course of screening many different plant species it has become evident that the protein class of the invention is fairly common in plant seeds. […] This is particularly evident when using Fusarium culmorum. The nature of the inhibition may also be characterized by the fact that it is very sensitive to the concentration of cations used in the assay.
This is readily visualised when Fusarium culmorum spores are used in the assay and at concentrations of the proteins which are 2-4 fold below the IC50 value.

For series [6], the system named is Alternaria brassicola MUCL 20297. The class given is cell-based.
In series [7] the test system is Ascochyta pisi MUCL 30164. The class given is cell-based.
In series [8] the test system is Botrytis cinerea MUCL 30158. The class given is cell-based.
Series [9] has as its system Cercospora beticola strain K897. It counts as cell-based.
Series [10] has as its system Colletotrichum lindemuthianum MUCL 9577. The class given is cell-based.
The subject of series [11] is Verticillium dahliae MUCL 19210. It counts as cell-based.
Series [12] relates to Alternaria longipes strain CBS 620.83. The series can be described thus: Antifungal activity assay (growth inhibition, microspectrophotometry). It counts as cell-based. The note with it: A longipes; medium B (medium A + 1 mM CaCl2, 50 mM KCl); 48 h.
Series [13] concerns Cladosporium sphaerospermum strain KO791. The description is as above. It counts as cell-based. The note with it: C sphaerospermum; medium B (medium A + 1 mM CaCl2, 50 mM KCl); 48 h.
The test system of series [14] is Fusarium culmorum spores. It counts as physicochemical. The note with it: for antifungal activity after heat treatment at up to 80° C.: 10 minutes, F culmorum assay; for antifungal activity after reduction of disulphide bonds: reduction by DTE / dithiothreitol. How it is done: Tests for antifungal activity were performed with 20 μl samples diluted five-fold with growth medium containing Fusarium culmorum spores, according to the assay method given in Example 1. Untreated control samples consisted of the test proteins at 500 μg/ml in 10 mM sodium phosphat buffer (pH 7). For digestions, different proteases were added at 100 μg/ml and incubated at 37° C. for 16 hours. Heat stability tests were performed by heating aliquots of the test proteins for 10 minutes at different temperatures up to 100° C. pH stability was tested by incubation of test proteins for 1 hour in either 20 mM glycine-HCl (pH 2) or glycine-NaOH (pH 11) and subsequent dialysis for 16 hours against 10 mM sodium phosphate buffer (pH 7) using benzoylated cellulose tubing. Reduction of dishulphide bridges was done by addition of DTE at 30 mM and Tris-HCl (pH 8.6) at 300 mM. The reagents were removed by reversed-phase chromatography. For digestions, different proteases were added at 200 μg/ml and incubated at 37° C. for 3 hours.

Another series relates to plant pathogenic fungi. It counts as cell-based.

Where no end group is shown, it is not given here.

In the case of “Ac-AMP1: antimicrobial protein from Amaranthus caudatus seeds, 29 residues, dimer of 3 kDa subunits (SEQ ID NO:5) (VGECVRGRCPSGMCCSQFGYCGKGPKYCG; cysteine pairing not given here; also: dimer of subunits)”, the “IC50 (concentration required for 50% growth inhibition)” value with Phytophthora infestans amounted to 12. For the same substance, the “IC50 (antibacterial activity)” value in [1] is 40 µg/mL. In the series with Sarcina lutea ATCC 9342, the “IC50 (antibacterial activity)” value was 250 µg/mL. Also, the “IC50 (antibacterial activity)” value in series [2] was “no inhibition”. In [3], the “IC50 (antibacterial activity)” value is recorded as “no inhibition”. Besides, in series [4], the affinity toward chitin result was “exhibit affinity toward chitin”. Besides, in the series with B cinerea, the “increase of IC50 values by CaCl2 at 1 mM” value was “five to six-fold”, the “drop in specific activity at 5 mM CaCl2” value is “more than 50 fold”, the “effect of KCl at 10 mM on the dose-response curves” value is on record as “did not significantly affect” and the “increase of IC50 values by KCl at 50 mM” value was “about three-fold”. The “IC50 in reference medium” value with B cinerea turned out to be 2.2 µg/mL. Besides, the “morphological change of partially inhibited spores” value in the series with Fusarium culmorum spores [5] is reported as “severe branching of the emerging hyphal tips”.

For “Ac-AMP2: antimicrobial protein from Amaranthus caudatus seeds, 30 residues, Ac-AMP1 plus carboxyl-terminal arginine (SEQ ID NO:6) (VGECVRGRCPSGMCCSQFGYCGKGPKYCGR)”, the “IC50 (concentration required for 50% growth inhibition)” value was 4 in series [6]; 8 in series [7]; 8 in [8]; 0.8 in series [9]; 8 in series [10]; 5 in series [11]. Further, the figures for the “IC50 (antibacterial activity)” value (in the series with Sarcina lutea ATCC 9342; in series [2]; in series [3]) were 40 µg/mL, “no inhibition” and “no inhibition”, respectively. Besides, in [4], the affinity toward chitin result is reported as “exhibit affinity toward chitin”. The “increase of IC50 values by CaCl2 at 1 mM” value in the series with B cinerea is “five to six-fold”. Also, the “drop in specific activity at 5 mM CaCl2” value in the series with B cinerea is recorded as “more than 50 fold”. The “effect of KCl at 10 mM on the dose-response curves” value in the series with B cinerea is recorded as “did not significantly affect”. Further, the “increase of IC50 values by KCl at 50 mM” value in the series on B cinerea is “about three-fold”. Besides, the “IC50 in reference medium” value in the series with B cinerea was 1.6 µg/mL.

For “Bm-AMP1: antimicrobial protein purified from seeds of Briza maxima; may be a mixture of peptides varying at positions 9 and 23 (SEQ ID NO:16)”, in [12], the “IC50 Medium B” value was > 500 µg/mL. Further, in series [13], the “IC50 Medium B” value is > 500 µg/mL. Moreover, in series [3], the “IC50 (activity on bacteria)” value is > 800 µg/mL. In the series with Fusarium culmorum spores [14], the “antifungal activity after heat treatment at up to 80° C.” value is on record as “resistant” and the “antifungal activity after reduction of disulphide bonds” value is “completely abolished”. In the series with plant pathogenic fungi, the “antifungal activity in high salt (medium B)” value was “essentially abolished” and the “number of fungi with IC50 value below 10 μg/ml” value is on record as “six of the eight”.

As for “Ca-AMP1: antimicrobial protein purified from seeds of Capsicum annuum (SEQ ID NO:15) (QEQCGNQAGGRACANRLCCSQYGYCGSTRAYCGVGCQSNCGR)”, the “IC50 (activity on bacteria)” value in series [3] is > 800 µg/mL. The affinity toward chitin result in series [4] was “exhibits affinity to chitin”. In the series with Fusarium culmorum spores [14], the “antifungal activity after heat treatment at up to 80° C.” value is reported as “resistant” and the “antifungal activity after reduction of disulphide bonds” value is on record as “completely abolished”. For the same substance, the “antifungal activity after treatment with chymotrypsin” value with Fusarium culmorum spores [14] (chymotrypsin) is listed as “no affect on activity”. Moreover, the “reduction of antifungal activity after treatment with pronase E” value in the series on Fusarium culmorum spores [14] (pronase E) is given as “at least 10 fold”. Further, in the series with Fusarium culmorum spores [14] (proteinase K), the “reduction of antifungal activity after treatment with proteinase K” value is “at least 10 fold”. In the series on Fusarium culmorum spores [14] (trypsin), the “reduction of antifungal activity after treatment with trypsin” value was found to be 2 fold. Moreover, in the series on plant pathogenic fungi, the “antifungal activity in high salt (medium B)” value is listed as “essentially abolished” and the “number of fungi with IC50 value below 50 μg/ml” value is recorded as 12 of the 18. In the series on Fusarium culmorum spores [5], the “morphological change of partially inhibited spores” value was “severe branching of the emerging hyphal tips”.
